# According to patent publication US9018253B2, “Phenylcarbamate compound and muscle relaxant containing the same” (Bio-Pharm Solutions Co., Ltd., priority 2010, dated 2015):
# Marks after values point to notes of the source that are not given here.
# Assays:
# Type in all cases: in vivo
# [1] = tested on: male mice (ICR); test: Residence time on a rotarod rotating at a fixed speed (Fixed 15 r.p.m. Rotarod, muscle relaxation); conditions: intraperitoneal (10 ul/g, bw), at time of maximum effect, 50% vs vehicle only (100%), 15 rpm, max 10 min
# Procedure: (§1) For testing, male mice (ICR) were purchased from ORIENT BIO INC. (Korea), divided into several groups with 6 mice in each group, and were adapted for 4-5 days. The mice having the weight ranging from 19 g to 26 g were employed for the test. The pharmacological effect of the test compounds on muscle relaxation was evaluated by Rotarod test, grip strength test, and muscular force (wire hang) test. All mice were adapted to the test environment at one hour before starting the tests. The pharmacological effects of all the test compounds were evaluated by administration through peritoneal cavity of the mice (10 ul/g, bw).
# All the mice to be tested were preliminarily trained for 5 minutes on a rod rotating at the rate of 15 revolutions per a minute. The mice that could not remain on the rod without falling off therefrom for a minimum of 2 minutes were excluded from this testing. After the training, all the mice were allowed to rest for 45-60 minutes. Before the administration of the test compounds, the mice were subjected to a further training for one minute on the rod rotating under the same condition, where the mice falling off from the rod were excluded from this experimentation. […] In case a mouse stays on the rod until the test is finished, the time was recorded as 10 minutes. As test time for evaluation, a maximum of 10 minutes was applied. This experimentation was conducted according to the method described in the reference, ‘Yasuda et al. (2005) Antipyretic, analgesic and muscle relaxant activities of Pueraria isoflavonoids and their metabolites from Pueraria lobata Ohwi—a traditional Chinese drug. Biol. Pharm. Bull. 28: 1224-1228’.
# (§2) The obtained results are shown as mean±sem. The difference between the groups was statistically analyzed by ANOVA, and then, further examined by Dunnett's test or Bonferroni test. If p is less than 0.05, it was determined that the difference between the groups had statistical significance.
# (§3) The results of muscle relaxation activity of the phenyl carbamate compounds measured in above Experimental Examples 1 to 4 are shown in following Table 3.
# [2] = tested on: male mice (ICR); test: Endurance time on a rotarod rotating at accelerated speed (Acc. Rotarod, muscle relaxation); conditions: Mus musculus, ip, 5 min, intraperitoneal (10 ul/g, bw), at time of maximum effect, 50% of muscle relaxation activity vs vehicle only (100%), rod accelerated 4 to 40 rpm, max 5 min, read-out: MR test ED50, I = Acc. Rotarod
# Procedure: as §1
# At 24 hours before testing, the mice to be tested were preliminarily trained for 5 minutes on a rod rotating at the rate of 6 revolutions per a minute. The pharmacological effect on muscle relaxation of the test compounds were evaluated by observing the mice on a rod for 5 minutes, where the rod was accelerated from 4 to 40 revolutions per a minute during the test time. The endurance time that each mouse endures on the acceleratedly rotated rod without falling off from the rod was recorded. As test time for evaluation, a maximum of 5 minutes was applied. […] This experimentation was conducted according to the method described in the reference, ‘Monville et al. (2006) Comparison of incremental and accelerating protocol of the rotarod test for the assessment of motor deficits in the 6-OHDA model. J. Neurosci. Meth. 158: 219-223’.
# as §2, §3
# [3] = tested on: male mice (ICR); test: Grip strength test (forelimbs, muscle relaxation); conditions: for ED50: Mus musculus, ip, intraperitoneal (10 ul/g, bw), at time of maximum effect, 50% vs vehicle only (100%), read-out: MR test ED50, III = Grip strength
# Procedure: as §1
# A grip strength test using the test animals' forelimbs was performed using an instrument equipped with triangle ring and designed so as to easily grip with the forelimbs of experimental animals, manufactured from Ugo Basile Inc. (Ugo Basile, Model 47106, Italy). The test was conducted before and after administration of the compounds to evaluate the effects thereof. […] The mouse was made to grip the rod with its forelimbs, and its tail was pulled, where the force at which the mouse detached from the rod was recorded. The instrument indicated the force in grams. All of the mice were given 3 opportunities for test, and the 3 highest values among the test opportunities were selected and the mean value was used as the test result. This experimentation was conducted according to the method described in the reference, ‘Nevins et al. (1993) Quantitative grip strength assessment as a means of evaluating muscle relaxation in mice. Psychopharmacol. 110: 92-96’.
# as §2, §3
# [4] = tested on: male mice (ICR); test: Wire hang test (muscular force, muscle relaxation); conditions: for ED50: Mus musculus, ip, intraperitoneal (10 ul/g, bw), at time of maximum effect, 50% vs vehicle only (100%), read-out: MR test ED50, IV = Wire hang; for IV = Wire hang, effect (%) compared to that of control treated with vehicle only: 100 mg/kg administered, intraperitoneal
# Procedure: as §1
# This experimentation was conducted using a metal wire of 30 cm in length, which was suspended between two pillars at a height of about 40 cm from the bottom covered with a soft pad. […] Each mouse was made to grip the wire using two forelimbs, and the elapse time before the mouse fell off from the wire to the pad on the bottom was recorded in seconds. Each mouse was given 5 opportunities for this test at an interval of 2 minutes period. The highest 3 records among the test opportunities were selected and the mean value was used as the test result. This experimentation was conducted according to the method described in the reference, ‘Jacqueline N. Crawley (1999) Behavioral phenotyping of transgenic and knockout mice: experimental design and evaluation of general health, sensory functions, motor abilities, and specific behavioral tests. Brain Res. 835: 18-26’.
# as §2, §3
Compound,"MR test ED50, II = Fixed 15 r.p.m. Rotarod [1]",other results
"CNC(=O)OC(C)C(O)c1ccccc1Cl (racemic) [Compound 29, 1-(2-chlorophenyl)-1-hydroxypropyl-2-N-methylcarbamate]","41.0 mg/kg, bw",–
"CC(C)NC(=O)O[C@H](C)[C@H](O)c1ccccc1Cl [Compound 24, 1-(2-chlorophenyl)-(R)-1-hydroxypropyl-(R)-2-N-isopropylcarbamate]","44.3 mg/kg, bw",–
"CNC(=O)O[C@H](C)[C@H](O)c1ccccc1Cl [Compound 22, 1-(2-chlorophenyl)-(R)-1-hydroxypropyl-(R)-2-N-methylcarbamate]","25.1 mg/kg, bw",–
"C[C@@H](OC(=O)NC1CC1)[C@H](O)c1ccccc1Cl [Compound 25, 1-(2-chlorophenyl)-(R)-1-hydroxypropyl-(R)-2-N-cyclopropylcarbamate]","18.3 mg/kg, bw",ED50 [2]: 30 mg/kg; ED50 [3]: 46.1 mg/kg; ED50 [4]: 32.9 mg/kg
"CC(C)NC(=O)O[C@@H](C)[C@@H](O)c1ccccc1Cl [Compound 17, 1-(2-chlorophenyl)-(S)-1-hydroxypropyl-(S)-2-N-isopropylcarbamate]","66.4 mg/kg, bw",–
"CNC(=O)O[C@@H](C)[C@@H](O)c1ccccc1Cl [Compound 15, 1-(2-chlorophenyl)-(S)-1-hydroxypropyl-(S)-2-N-methylcarbamate]","42.8 mg/kg, bw",–
"C[C@H](OC(N)=O)[C@@H](O)c1ccccc1Cl [Compound 1, 1-(2-chlorophenyl)-(S)-1-hydroxypropyl-(S)-2-carbamate]","23.3 mg/kg, bw",–
"C[C@H](OC(N)=O)[C@@H](O)c1ccccc1I [Compound 65, 1-(2-iodophenyl)-(S)-1-hydroxypropyl-(S)-2-carbamate]","28.0 mg/kg, bw",–
"C[C@@H](OC(N)=O)[C@@H](O)c1ccccc1Cl [Compound 5, 1-(2-chlorophenyl)-(S)-1-hydroxypropyl-(R)-2-carbamate]","65.5 mg/kg, bw",ED50 [2]: 66.9 mg/kg; ED50 [3]: 95 mg/kg; ED50 [4]: 52.5 mg/kg
"C[C@@H](OC(N)=O)[C@H](O)c1ccccc1F [Compound 64, 1-(2-fluorophenyl)-(R)-1-hydroxypropyl-(R)-2-carbamate]",–,"III = Grip strength, effect (%) compared to that of control treated with vehicle only ([3]; 120 mg/kg administered, intraperitoneal): 120 ^a (35.4%); IV = Wire hang, effect (%) compared to that of control treated with vehicle only [4]: 100 ^a (30.8%)"
"C[C@@H](OC(N)=O)[C@H](O)c1ccccc1Cl [Compound 2, 1-(2-chlorophenyl)-(R)-1-hydroxypropyl-(R)-2-carbamate]","76.5 mg/kg, bw",–
"C[C@H](OC(N)=O)[C@H](O)c1ccccc1Cl [Compound 4, 1-(2-chlorophenyl)-(R)-1-hydroxypropyl-(S)-2-carbamate]","65.0 mg/kg, bw",ED50 [2]: 69.3 mg/kg; ED50 [3]: 124 mg/kg; ED50 [4]: 40 mg/kg
"CCCNC(=O)O[C@@H](C)[C@@H](O)c1ccccc1Cl [Compound 16, 1-(2-chlorophenyl)-(S)-1-hydroxypropyl-(S)-2-N-propylcarbamate]","61.6 mg/kg, bw",–
"C[C@@H](OC(N)=O)[C@H](O)c1ccccc1I [Compound 66, 1-(2-iodophenyl)-(R)-1-hydroxypropyl-(R)-2-carbamate]","67.9 mg/kg, bw",–
"C[C@H](OC(=O)NC1CC1)[C@@H](O)c1ccccc1Cl [Compound 18, 1-(2-chlorophenyl)-(S)-1-hydroxypropyl-(S)-2-N-cyclopropylcarbamate]","61.2 mg/kg, bw",–
"CC(OC(N)=O)C(O)c1ccccc1Cl (racemic) [Compound 3, 1-(2-chlorophenyl)-1-hydroxypropyl-2-carbamate]","47.7 mg/kg, bw",–
"CC[C@H](OC(N)=O)[C@@H](O)c1ccccc1I [Compound 67, 1-(2-iodophenyl)-(S)-1-hydroxybutyl-(S)-2-carbamate]","30.2 mg/kg, bw",–
"C[C@H](OC(N)=O)[C@@H](O)c1ccccc1F [Compound 63, 1-(2-fluorophenyl)-(S)-1-hydroxypropyl-(S)-2-carbamate]",–,"IV = Wire hang, effect (%) compared to that of control treated with vehicle only [4]: 100 ^a (84.2%)"
